Reference: paper PMC11225074 (Clinical and Translational Medicine, 2024)

Legend:
[1] = test system: Histone H3K4me1 and H3K4me3 peptides; experiment: Dot blot of antibody specificity; assay type: binding; conditions: 1:1000, 16 h at 4°C, nitrocellulose, chemiluminescence
Text: Next, the membranes were washed with 1×TBST in order to eliminate any antibodies that were not bound. Following washing, the membranes were exposed to secondary antibodies that were linked to HRP.

[2] = test system: His‐YBX1; experiment: Microscale thermophoresis (MST), His-YBX1 wild type; assay type: binding; conditions: PBS (pH 7.4) with 0.05% Tween‐20, peptide 10 nM to 500 µM, NT-647-NHS labelled protein; at least three experiments
Method: The recombinant plasmids pGEX and pET‐28a expressing GST‐YBX1 and His‐YBX1, respectively, were transformed into E. coli BL21 to generate two recombinant strains pGEX‐GST‐YBX1 and pET‐28a‐His‐YBX1. These strains were inoculated into LB medium and cultured with ampicillin or kanamycin, and isopropylthio‐β‐D‐galactoside at 16°C overnight. Post‐culturing, the cells were collected and sonicated in PBS.
Proteins with labels were dissolved in a solution of PBS (pH 7.4) with 0.05% Tween‐20. […] After incubation, the mixture was moved to silica capillaries and thermophoresis was assessed using a NanoTemper Monolith NT.115 device from NanoTemper Technologies GmbH. Dissociation constant (Kd) values were determined using the law of mass action formula in NanoTemper Analysis 1.5.41 software. All microscale thermophoresis (MST) experiments were conducted at least three times.

H3K4me1 antibody: anti‐H3K4me1 (1:1000; Abcam; ab176877)
Antibody specificity towards the corresponding modification [1]: high specificity

H3K4me3 antibody: anti‐H3K4me3 (1:1000; Abcam; ab213224)
Antibody specificity towards the corresponding modification [1]: high specificity

ART‐Kme0/1/3‐QTARKSTGGKAPRKQL [H3, chemically synthesized unmethylated histone H3 peptide of 20 amino acids (GenScript)]
Binding of His-YBX1 to peptide (MST) [2]: no discernible binding affinity
